Measurements as given in US20170190705A1, “Compositions and Methods for Inhibiting BMP” (THE BRIGHAM AND WOMAN'S HOSPITAL, INC., priority 2014, published 2017).

How the values were obtained:
Assay type in all cases: biochemical
FLT-1 = FLT-1 (Homo sapiens, UniProt P17948); test: Kinome profiling FLT-1; conditions: read-out: Inhibitory activity FLT-1; for inhibition at 0.1 µM: 100 nM
Description: (§1) . The kinome-wide selectivity was determined following the methods previously reported by Mohedas et al., ACS Chem Biol 2013, 8, 1291-1302 and Sanvitale et al., PLoS One 2013, 8, e62721.

TRKA = TRKA (Homo sapiens, UniProt P04629); test: Kinome profiling TRKA; conditions: read-out: Inhibitory activity TRKA; for inhibition at 0.1 µM: 100 nM
Description: as §1

TRKB = TRKB (Homo sapiens, UniProt Q16620); test: Kinome profiling TRKB; conditions: read-out: Inhibitory activity TRKB; for inhibition at 0.1 µM: 100 nM
Description: as §1

MSSK1 = MSSK1 (Homo sapiens, UniProt Q9UPE1); test: Kinome profiling MSSK1; conditions: read-out: Inhibitory activity MSSK1; for inhibition at 0.1 µM: 100 nM
Description: as §1

BRSK1 = biological target: T1, BRSK1 (Homo sapiens, UniProt Q8TDC3); test: Kinome profiling BRSK1; conditions: read-out: Inhibitory activity BRSK1; for inhibition at 0.1 µM: 100 nM
T1 sequence (Q8TDC3 1-778): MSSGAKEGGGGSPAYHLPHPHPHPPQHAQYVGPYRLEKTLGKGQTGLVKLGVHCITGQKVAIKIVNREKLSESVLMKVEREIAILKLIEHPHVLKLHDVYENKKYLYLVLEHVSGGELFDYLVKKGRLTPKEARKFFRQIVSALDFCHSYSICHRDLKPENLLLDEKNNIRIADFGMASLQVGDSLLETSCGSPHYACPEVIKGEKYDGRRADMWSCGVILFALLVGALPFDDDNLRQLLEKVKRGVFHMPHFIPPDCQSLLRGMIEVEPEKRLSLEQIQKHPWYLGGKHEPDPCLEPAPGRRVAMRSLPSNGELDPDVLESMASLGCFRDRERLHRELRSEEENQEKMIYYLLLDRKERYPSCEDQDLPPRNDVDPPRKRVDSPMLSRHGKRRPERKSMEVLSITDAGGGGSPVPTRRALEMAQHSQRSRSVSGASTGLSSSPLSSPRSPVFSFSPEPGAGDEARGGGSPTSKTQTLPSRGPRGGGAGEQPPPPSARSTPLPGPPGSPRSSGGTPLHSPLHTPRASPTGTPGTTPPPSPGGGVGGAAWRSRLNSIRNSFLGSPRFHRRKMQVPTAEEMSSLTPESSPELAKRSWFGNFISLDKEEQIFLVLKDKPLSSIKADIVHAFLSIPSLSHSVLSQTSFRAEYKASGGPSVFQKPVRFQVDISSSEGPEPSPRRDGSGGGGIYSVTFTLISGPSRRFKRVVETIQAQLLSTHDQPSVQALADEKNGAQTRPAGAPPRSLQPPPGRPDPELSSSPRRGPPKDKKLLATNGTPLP
Description: as §1

ROCK1 = ROCK1 (Homo sapiens, UniProt Q13464); test: Kinome profiling ROCK1; conditions: read-out: Inhibitory activity ROCK1; for inhibition at 0.1 µM: 100 nM
Description: as §1

AXL = biological target: T2, AXL (Homo sapiens, UniProt P30530); test: Kinome profiling AXL; conditions: read-out: Inhibitory activity AXL; for inhibition at 0.1 µM: 100 nM
T2 sequence (P30530 26-894): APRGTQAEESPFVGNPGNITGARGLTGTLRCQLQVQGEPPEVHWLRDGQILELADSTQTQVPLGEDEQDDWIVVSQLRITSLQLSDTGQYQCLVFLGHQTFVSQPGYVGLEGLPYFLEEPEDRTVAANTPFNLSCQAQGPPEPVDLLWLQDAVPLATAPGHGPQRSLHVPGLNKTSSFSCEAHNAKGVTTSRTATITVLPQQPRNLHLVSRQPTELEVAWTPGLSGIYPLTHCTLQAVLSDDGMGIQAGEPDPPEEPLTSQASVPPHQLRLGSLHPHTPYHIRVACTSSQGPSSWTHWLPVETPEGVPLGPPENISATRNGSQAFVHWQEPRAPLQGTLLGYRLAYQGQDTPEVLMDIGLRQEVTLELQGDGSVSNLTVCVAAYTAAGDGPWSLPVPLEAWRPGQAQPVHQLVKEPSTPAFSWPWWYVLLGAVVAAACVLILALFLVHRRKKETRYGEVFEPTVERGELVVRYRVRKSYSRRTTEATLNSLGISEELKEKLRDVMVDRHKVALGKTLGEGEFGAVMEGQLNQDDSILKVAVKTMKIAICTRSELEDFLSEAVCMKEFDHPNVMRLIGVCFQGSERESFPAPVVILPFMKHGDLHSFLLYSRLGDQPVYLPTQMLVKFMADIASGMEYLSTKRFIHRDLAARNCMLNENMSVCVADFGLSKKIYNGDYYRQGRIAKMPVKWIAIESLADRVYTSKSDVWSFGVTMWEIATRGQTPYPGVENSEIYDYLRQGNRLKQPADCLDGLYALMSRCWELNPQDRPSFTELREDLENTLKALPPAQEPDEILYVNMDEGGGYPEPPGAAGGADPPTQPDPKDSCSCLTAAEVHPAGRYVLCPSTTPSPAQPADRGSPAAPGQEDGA
Description: as §1

Chain of TRKB (Q16620 32-822): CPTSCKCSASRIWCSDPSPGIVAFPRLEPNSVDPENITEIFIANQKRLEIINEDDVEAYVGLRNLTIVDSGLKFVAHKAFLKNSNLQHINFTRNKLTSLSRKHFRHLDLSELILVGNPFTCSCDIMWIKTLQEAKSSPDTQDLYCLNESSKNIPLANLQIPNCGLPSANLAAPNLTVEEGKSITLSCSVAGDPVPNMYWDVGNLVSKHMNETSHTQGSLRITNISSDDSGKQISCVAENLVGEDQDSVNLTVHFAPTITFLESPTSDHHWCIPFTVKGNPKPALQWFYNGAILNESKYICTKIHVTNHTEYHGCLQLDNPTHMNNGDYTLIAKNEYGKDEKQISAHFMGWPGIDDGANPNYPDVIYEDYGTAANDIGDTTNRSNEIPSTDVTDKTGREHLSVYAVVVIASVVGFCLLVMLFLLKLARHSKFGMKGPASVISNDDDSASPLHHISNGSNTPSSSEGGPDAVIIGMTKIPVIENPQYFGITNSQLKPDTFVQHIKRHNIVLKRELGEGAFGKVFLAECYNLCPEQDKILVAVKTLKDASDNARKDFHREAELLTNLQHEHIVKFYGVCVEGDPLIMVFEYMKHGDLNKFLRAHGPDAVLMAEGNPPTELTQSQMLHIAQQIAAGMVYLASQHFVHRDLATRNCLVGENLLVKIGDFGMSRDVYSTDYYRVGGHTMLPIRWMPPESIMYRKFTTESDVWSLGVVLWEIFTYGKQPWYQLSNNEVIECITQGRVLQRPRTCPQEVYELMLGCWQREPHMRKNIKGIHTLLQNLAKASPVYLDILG
Chain of MSSK1 (Q9UPE1 whole entry): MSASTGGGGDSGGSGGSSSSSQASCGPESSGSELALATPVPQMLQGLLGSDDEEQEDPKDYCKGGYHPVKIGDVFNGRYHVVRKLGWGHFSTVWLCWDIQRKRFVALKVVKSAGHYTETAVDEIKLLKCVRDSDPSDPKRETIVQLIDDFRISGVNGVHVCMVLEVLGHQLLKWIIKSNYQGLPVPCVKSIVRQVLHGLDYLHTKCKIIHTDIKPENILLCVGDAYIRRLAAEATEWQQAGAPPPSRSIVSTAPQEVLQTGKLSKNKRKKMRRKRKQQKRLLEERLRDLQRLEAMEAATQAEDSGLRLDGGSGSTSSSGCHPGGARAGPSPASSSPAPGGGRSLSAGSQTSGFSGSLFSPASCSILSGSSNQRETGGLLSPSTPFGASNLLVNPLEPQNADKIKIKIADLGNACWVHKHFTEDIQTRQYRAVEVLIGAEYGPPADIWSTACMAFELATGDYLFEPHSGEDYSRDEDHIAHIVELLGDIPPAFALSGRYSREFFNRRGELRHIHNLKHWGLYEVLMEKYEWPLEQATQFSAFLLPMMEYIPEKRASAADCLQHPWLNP
Chain of TRKA (P04629 33-796): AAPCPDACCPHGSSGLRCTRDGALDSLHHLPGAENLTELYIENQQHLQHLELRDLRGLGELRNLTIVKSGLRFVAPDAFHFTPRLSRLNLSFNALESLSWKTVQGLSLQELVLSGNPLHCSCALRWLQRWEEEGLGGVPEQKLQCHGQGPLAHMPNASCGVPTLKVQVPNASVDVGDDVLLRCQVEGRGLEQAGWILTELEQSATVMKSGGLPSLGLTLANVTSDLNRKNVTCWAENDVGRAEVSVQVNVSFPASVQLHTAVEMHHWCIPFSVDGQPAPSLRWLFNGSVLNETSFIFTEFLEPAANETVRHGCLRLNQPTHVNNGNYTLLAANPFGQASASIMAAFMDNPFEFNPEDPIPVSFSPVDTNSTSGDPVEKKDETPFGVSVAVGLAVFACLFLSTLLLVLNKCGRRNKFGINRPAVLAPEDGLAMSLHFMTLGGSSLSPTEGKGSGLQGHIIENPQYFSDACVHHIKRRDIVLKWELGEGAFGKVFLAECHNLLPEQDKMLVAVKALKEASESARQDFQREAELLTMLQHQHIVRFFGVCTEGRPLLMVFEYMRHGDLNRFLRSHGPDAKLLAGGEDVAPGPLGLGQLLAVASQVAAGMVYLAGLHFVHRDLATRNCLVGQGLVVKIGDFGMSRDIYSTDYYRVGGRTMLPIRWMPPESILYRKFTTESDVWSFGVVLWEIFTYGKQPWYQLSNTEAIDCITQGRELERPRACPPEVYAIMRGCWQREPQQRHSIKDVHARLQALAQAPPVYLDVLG
Chain of FLT-1 (P17948 27-1338): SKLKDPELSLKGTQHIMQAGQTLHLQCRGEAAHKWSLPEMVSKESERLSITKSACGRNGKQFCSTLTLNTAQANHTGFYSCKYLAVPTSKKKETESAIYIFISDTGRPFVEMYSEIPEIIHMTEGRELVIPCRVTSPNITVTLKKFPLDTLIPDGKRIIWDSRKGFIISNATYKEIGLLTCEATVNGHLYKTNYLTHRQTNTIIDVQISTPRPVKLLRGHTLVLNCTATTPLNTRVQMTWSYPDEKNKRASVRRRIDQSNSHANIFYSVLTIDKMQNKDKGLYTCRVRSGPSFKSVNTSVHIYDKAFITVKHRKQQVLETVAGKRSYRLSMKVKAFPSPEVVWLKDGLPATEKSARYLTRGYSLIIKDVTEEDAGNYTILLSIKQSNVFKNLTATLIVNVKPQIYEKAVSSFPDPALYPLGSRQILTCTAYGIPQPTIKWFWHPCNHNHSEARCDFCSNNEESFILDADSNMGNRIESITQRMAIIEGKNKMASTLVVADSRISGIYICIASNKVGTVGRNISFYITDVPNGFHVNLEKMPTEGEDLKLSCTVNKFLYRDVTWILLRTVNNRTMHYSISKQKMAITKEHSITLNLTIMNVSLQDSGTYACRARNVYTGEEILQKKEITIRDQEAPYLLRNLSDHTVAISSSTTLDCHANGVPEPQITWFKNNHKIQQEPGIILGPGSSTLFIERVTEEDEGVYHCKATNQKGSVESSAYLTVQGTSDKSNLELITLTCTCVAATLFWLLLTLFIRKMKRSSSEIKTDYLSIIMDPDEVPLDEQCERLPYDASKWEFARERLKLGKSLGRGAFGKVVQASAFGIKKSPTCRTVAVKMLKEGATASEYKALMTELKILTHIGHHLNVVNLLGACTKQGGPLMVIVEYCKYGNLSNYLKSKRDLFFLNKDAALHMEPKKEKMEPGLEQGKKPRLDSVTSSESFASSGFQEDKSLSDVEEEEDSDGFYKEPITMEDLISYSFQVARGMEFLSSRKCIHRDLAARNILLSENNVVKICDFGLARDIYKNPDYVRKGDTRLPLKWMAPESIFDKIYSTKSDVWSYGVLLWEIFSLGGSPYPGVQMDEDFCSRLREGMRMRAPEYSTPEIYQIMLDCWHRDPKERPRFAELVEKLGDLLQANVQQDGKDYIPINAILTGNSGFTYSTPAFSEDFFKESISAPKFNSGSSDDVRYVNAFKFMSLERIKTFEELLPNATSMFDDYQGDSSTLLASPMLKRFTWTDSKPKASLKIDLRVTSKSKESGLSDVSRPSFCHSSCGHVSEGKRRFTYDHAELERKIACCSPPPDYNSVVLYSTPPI
Chain of ROCK1 (Q13464 whole entry): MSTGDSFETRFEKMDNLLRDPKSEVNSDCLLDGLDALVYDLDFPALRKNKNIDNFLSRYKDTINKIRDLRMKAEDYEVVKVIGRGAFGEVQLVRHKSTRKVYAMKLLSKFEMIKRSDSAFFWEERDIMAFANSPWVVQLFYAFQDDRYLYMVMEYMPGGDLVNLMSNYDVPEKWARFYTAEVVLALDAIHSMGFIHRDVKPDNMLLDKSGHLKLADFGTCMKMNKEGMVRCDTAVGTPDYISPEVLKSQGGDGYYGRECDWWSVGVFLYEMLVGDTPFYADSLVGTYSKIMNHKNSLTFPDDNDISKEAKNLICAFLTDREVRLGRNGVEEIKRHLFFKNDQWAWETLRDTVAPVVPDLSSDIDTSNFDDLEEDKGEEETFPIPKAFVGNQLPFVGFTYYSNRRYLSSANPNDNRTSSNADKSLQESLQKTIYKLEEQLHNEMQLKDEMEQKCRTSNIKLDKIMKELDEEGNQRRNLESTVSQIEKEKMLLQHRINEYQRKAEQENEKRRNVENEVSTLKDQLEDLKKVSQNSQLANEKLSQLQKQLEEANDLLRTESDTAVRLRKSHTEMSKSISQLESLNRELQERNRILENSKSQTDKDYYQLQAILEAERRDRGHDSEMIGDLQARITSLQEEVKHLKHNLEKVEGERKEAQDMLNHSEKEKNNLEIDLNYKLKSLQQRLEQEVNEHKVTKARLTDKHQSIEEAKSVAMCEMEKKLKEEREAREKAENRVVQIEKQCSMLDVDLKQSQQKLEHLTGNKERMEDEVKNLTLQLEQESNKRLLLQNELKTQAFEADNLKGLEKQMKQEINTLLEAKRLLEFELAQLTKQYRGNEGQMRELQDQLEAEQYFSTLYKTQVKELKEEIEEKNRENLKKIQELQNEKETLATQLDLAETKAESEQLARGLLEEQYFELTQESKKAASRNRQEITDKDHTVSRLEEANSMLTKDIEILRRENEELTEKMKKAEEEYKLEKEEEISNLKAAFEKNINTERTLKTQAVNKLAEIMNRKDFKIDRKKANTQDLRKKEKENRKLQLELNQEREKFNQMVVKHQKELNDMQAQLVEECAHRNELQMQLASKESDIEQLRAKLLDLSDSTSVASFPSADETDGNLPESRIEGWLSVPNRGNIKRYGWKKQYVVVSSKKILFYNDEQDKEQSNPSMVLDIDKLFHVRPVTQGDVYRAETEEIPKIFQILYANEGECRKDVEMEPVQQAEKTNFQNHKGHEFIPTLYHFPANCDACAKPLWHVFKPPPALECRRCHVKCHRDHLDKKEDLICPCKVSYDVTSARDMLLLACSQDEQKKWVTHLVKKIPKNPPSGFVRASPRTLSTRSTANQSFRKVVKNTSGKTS

SMILES | inhibition at 0.1 µM (FLT-1) [%] | inhibition at 1 µM (FLT-1) [%] | inhibition at 0.1 µM (TRKA) [%] | inhibition at 1 µM (TRKA) [%] | inhibition at 0.1 µM (TRKB) [%] | inhibition at 1 µM (TRKB) [%] | inhibition at 0.1 µM (MSSK1) [%] | inhibition at 1 µM (MSSK1) [%] | inhibition at 0.1 µM (BRSK1) [%] | inhibition at 1 µM (BRSK1) [%] | inhibition at 0.1 µM (ROCK1) [%] | inhibition at 1 µM (ROCK1) [%] | inhibition at 0.1 µM (AXL) [%] | inhibition at 1 µM (AXL) [%]
COc1cc(-c2cc(-c3ccc(N4CCNCC4)cc3)cnc2C)cc(OC)c1OC [Compound 10, 1-(4-(6-methyl-5-(3,4,5-trimethoxyphenyl)pyridin-3-yl)phenyl)piperazine] | 8 | 16 | 2 | 1 | 3 | 3 | 2 | 2 | 1 | 1 | 1 | 0 | 1 | 7
COc1cc(-c2cc(-c3ccc(N4CCNCC4)cc3)cnc2N)cc(OC)c1OC [Compound 15, 5-(4-(piperazin-1-yl)phenyl)-3-(3,4,5-trimethoxyphenyl)pyridin-2-amine] | 3 | 5 | 5 | 5 | 2 | 3 | -2 | 0 | 0 | 0 | 0 | 0 | -4 | -1
